# From US20100166897A1, “COMBINATION OF MONOSACCHARIDES WITH ANTIOXIDANTS AND USE THEREOF” (L'OREAL, priority 2008, published 2010)
# How the values were obtained:
# [1] = system: keratinocytes (HaCat line); test: Proliferation of keratinocytes (HaCat line) in medium deficient in growth factors; Cyquant, Nile red and XTT probes; assay type: cell-based
# Protocol: The keratinocytes (HaCat line) are cultured under two conditions: whole defined culture medium (standard condition) and culture medium deficient in growth factors. This deficient medium gives rise to a controlled delay in cell proliferation. Under these conditions, it is then possible to measure the effects of compounds capable of compensating for the deficiency in growth factors of the culture medium and thus of relaunching the cell multiplication and/or of stimulating cell metabolism.
# The keratinocyte proliferation is measured by means of three markers on the same cell population: the level of DNA, which is proportional to the number of cells (Cyquant probe), the level of constituent polar lipids of cell membranes (Nile red probe) and the mitochondrial respiration, which reflects the general cell metabolism (XTT probe).
# [2] = system: dermal fibroblasts of the reconstructed skin; test: Proliferation of fibroblasts in whole reconstructed skin (propidium iodide count on frozen sections); assay type: cell-based, human; conditions: 5 mM rhamnose; within 48 hours of treatment
# Text: Rhamnose was studied on a model of whole reconstructed skin in order to measure its anti-ageing efficacy on the dermal compartment.
# Briefly, the model of reconstructed skin used is that described by Bell et al. (Bell E. et al., The reconstitution of living skin, J. Invest. Dermatol., 1983, July; 81): it includes a dermal equivalent on which is reconstructed a multistratified epidermis; the dermal equivalent is manufactured from acid-soluble collagen, culture medium containing serum and normal adult human fibroblasts. After 5 days of shrinkage, this equivalent is inoculated with keratinocytes and then cultured for 6 days in immersion and for 7 days in emersion in order to obtain a multistratified and differentiated epidermis having a horny layer.
# The reconstructed skin is treated with 5 mM rhamnose for 2 days and 5 days in the culture medium; after the treatment, the reconstructed skins are included in Tissue Tek in order to produce frozen sections 7 μm thick with a cryostat. […] Three frozen sections are prepared at random on each reconstructed skin; on each section, two microscopic fields (25× objective lens) are analysed by fluorescence microscopy and photographed. The dermal fibroblasts are thus counted for each reconstructed skin on six images in total representing the six microscopic fields considered. […]
# type I procollagen = test: Synthesis of procollagen 1 in reconstructed skin (indirect immunofluorescence); assay type: cell-based, human
# Protocol: Conventional detection via indirect immunofluorescence of type I procollagen in the dermis of the reconstructed skin was also performed on other series of frozen sections (anti-procoll 1 antibody (MAB 1912 Millipore)+FTIC-coupled conjugate (112-095-068 Jackson Immunoresearch)). In order to obtain bearings within the cutaneous architecture during the microscopic examination of the sections, the cell nuclei of the keratinocytes and fibroblasts are localized by staining them with propidium iodide, as described above. Three frozen sections are prepared at random on each reconstructed skin and on each section, and two microscopic fields (25× objective lens) are analysed is by fluorescence microscopy and photographed. The levels of fluorescence proportional to the amount of type I procollagen are compared between the control skin and the skin treated with rhamnose.
structure (smiles),measurement,setting,value
C[C@H](O)[C@H](O)[C@@H](O)[C@@H](O)C=O [rhamnose],number of cells compared with an untreated control,[1]; keratinocytes cultured in medium depleted in growth factor,higher number of cells
same,keratinocyte proliferation,[1]; keratinocytes cultured in medium depleted in growth factors,activate keratinocyte proliferation
same,growth of the dermal fibroblasts of the reconstructed skin,[2],stimulation of growth
same,synthesis of type I procollagen by the fibroblasts,"type I procollagen; 1 mM rhamnose for 120 hours, reconstructed skin",greatly stimulated
same,green fluorescence (proportional to amount of type I procollagen) compared with control skin,"type I procollagen; 1 mM rhamnose for 120 hours, reconstructed skin section",marked increase
same,procollagen 1 synthesis,"type I procollagen; 1 mM, reconstructed skin",stimulation of procollagen 1 synthesis
same,procollagen 1 synthesis,"type I procollagen; 5 mM, reconstructed skin",stimulation of procollagen 1 synthesis
